Measurements as given in patent publication US20100137312A1, “NOVEL AROMATIC HETEROCYCLIC CARBOXYLIC ACID AMIDE DERIVATIVES USEFUL AS POTASSIUM CHANNEL MODULATORS” (neuroSearch A/S, priority 2007, published 2010).

How the values were obtained:
[1] = biological target: T1, BK channels heterologously expressed in Xenopus laevis oocytes (Homo sapiens, UniProt Q12791); experiment: BK channel opening activity, two-electrode voltage clamp, left-shift of the BK activation curve; format: cell-based; details: 0.01-31.6 μM compound, sigmoidal logistic fit; for EC50: ΔV at control conductance level of +100 mV, read-out: EC50 for the left-shift of the BK activation curve (ΔV vs. concentration)
T1 construct: expressed in transfected cells; host or cells: Xenopus laevis oocytes
Experimental: In this example the BK channel opening activity of Compound 2 (FIGS. 1A and 1B), Compound 1 (FIGS. 2A and 2B) and Compound 9 (FIGS. 3A and 3B) is determined using BK channels heterologously expressed in Xenopus laevis oocytes.
The electrical current through the BK channel is measured using conventional two-electrode voltage clamp. BK currents are activated by repeating ramp protocols. In brief, the membrane potential is continuously changed from −120 mV to +120 mV within 2 s. The threshold for BK activation is approximately +30 mV under control conditions. Compounds are applies for 100 s during which the ramp protocol is repeated 10 times with 10 s intervals. In between the ramp protocols the membrane potential is clamped at −80 mV. The first three compound applications are control blanks where the current level is allowed to stabilize. In the subsequent 8 applications increasing concentrations (0.01-31.6 μM) of compound is applied and a marked increase in the current level at depolarizing potentials is observed.
In order to evaluate the ability of the compounds to shift the BK activation curve towards lower membrane potentials, the BK current was transformed into conductance by using Ohm's law g=I/(Ememb−Erev), where g is the conductance, I is the current, Ememb is the membrane potential and Erev is the reversal potential. The extracellular solution for these experiments contains 2.5 mM K^+and the intracellular K^+concentration of an oocyte is estimated to be 100 mM. Under those conditions, Nernst equation predicts a reversal potential of Erev=−93.2 mV. The control conductance level at a membrane potential of +100 mV was calculated, and the compound effect was evaluated as the potential difference, ΔV, to the membrane potential at which the same conductance level was obtained in the presence of compound.
The concentration response curve for this potential difference was fitted to the sigmoidal logistic equation: ΔV=ΔVmax/(1+(EC50/[compound])^n), where ΔVmax represents the maximal left shift of the BK activation curve, EC50 is the concentration causing a half maximal response, and n is the slope coefficient.

T1 sequence (Q12791 whole entry): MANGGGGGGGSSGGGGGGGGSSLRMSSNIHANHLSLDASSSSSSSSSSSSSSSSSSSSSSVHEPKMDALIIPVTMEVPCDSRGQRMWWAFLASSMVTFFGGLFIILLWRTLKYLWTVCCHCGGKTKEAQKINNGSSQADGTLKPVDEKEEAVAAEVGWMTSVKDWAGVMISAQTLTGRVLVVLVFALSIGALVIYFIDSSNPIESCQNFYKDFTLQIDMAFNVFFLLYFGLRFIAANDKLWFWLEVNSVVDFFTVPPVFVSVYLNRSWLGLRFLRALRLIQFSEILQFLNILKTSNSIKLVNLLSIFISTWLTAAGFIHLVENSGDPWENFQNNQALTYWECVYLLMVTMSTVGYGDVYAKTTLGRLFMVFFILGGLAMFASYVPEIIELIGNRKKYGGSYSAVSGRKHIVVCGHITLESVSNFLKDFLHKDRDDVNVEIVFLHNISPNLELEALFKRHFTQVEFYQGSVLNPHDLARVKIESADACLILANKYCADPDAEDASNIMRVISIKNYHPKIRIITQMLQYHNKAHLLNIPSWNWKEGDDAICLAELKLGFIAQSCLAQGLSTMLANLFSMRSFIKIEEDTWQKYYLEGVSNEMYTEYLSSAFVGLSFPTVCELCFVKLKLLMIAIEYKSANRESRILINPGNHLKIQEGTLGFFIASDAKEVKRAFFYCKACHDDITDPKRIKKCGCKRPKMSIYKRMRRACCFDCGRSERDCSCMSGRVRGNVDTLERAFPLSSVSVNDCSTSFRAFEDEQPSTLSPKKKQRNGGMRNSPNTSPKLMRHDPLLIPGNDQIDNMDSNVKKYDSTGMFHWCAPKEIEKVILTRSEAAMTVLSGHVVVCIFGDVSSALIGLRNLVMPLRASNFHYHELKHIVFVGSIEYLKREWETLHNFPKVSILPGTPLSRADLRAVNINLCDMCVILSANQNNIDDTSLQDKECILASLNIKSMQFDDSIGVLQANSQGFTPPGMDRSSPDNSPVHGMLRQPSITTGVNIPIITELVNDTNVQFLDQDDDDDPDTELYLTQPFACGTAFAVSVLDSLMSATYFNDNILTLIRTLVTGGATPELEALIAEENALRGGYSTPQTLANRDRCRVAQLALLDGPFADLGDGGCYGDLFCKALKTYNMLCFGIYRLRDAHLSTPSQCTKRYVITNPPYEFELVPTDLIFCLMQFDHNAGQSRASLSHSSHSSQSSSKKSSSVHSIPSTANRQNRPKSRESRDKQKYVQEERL

| SMILES | melting point [°C] | maximal left-shift of the BK activation curve (ΔVmax) [1] [mV] | EC50 [1] [nM] |
| --- | --- | --- | --- |
| Cc1nc(-c2ccc(C(F)(F)F)cc2)sc1C(=O)Nc1cc(Cl)ccc1-c1nnn[nH]1 [Compound 9, 4-Methyl-2-(4-trifluoromethyl-phenyl)-thiazole-5-carboxylic acid [5-chloro-2-(1H-tetrazol-5-yl)-phenyl]-amide] | 325 to 337.2 | −99 | 970 |
| O=C(O)c1cc(F)c(F)cc1NC(=O)c1cc(-c2ccc(Cl)cc2)oc1C(F)(F)F [Compound 13, 2-{[5-(4-Chloro-phenyl)-2-trifluoromethyl-furan-3-carbonyl]-amino}-4,5-difluoro-benzoic acid] | 337.2 to 340.2 | – | – |
| O=C(Nc1cc(Cl)ccc1-c1nnn[nH]1)c1cnn(-c2ccc(Cl)cc2)c1C(F)(F)F [Compound 2, 1-(4-Chloro-phenyl)-5-trifluoromethyl-1H-pyrazole-4-carboxylic acid [5-chloro-2-(1H-tetrazol-5-yl)-phenyl]-amide] | 176.3 to 180.4 | −94 | 2400 |
| O=C(Nc1cc(Cl)ccc1OCc1nnn[nH]1)c1cc(-c2ccc(Cl)cc2)oc1C(F)(F)F [Compound 7, 5-(4-Chloro-phenyl)-2-trifluoromethyl-furan-3-carboxylic acid [5-chloro-2-(1H-tetrazol-5-ylmethoxy)-phenyl]-amide] | 226.9 to 236.1 | – | – |

Now from value to compound:

| melting point [°C] | maximal left-shift of the BK activation curve (ΔVmax) [1] [mV] | EC50 [1] [nM] | SMILES |
| --- | --- | --- | --- |
| 248.1 to 250.9 | – | – | Cc1oc(-c2ccc(Cl)cc2)cc1C(=O)Nc1cc(Cl)ccc1-c1noc(=O)[nH]1 [Compound 20, 5-(4-Chloro-phenyl)-2-methyl-furan-3-carboxylic acid [5-chloro-2-(5-oxo-4,5-dihydro-[1,2,4]oxadiazol-3-yl)-phenyl]-amide] |
| 259 to 262 | – | – | CS(=O)(=O)NC(=O)c1ccc(Cl)cc1NC(=O)c1cc(-c2ccc(Cl)cc2)oc1C(F)(F)F [Compound 5, 5-(4-Chloro-phenyl)-2-trifluoromethyl-furan-3-carboxylic acid (5-chloro-2-methanesulfonylaminocarbonyl-phenyl)-amide] |
| – | −88 | 4400 | O=C(Nc1cc(Cl)ccc1-c1nnn[nH]1)c1cc(-c2ccc(Cl)cc2)oc1C(F)(F)F [Compound 1, 5-(4-Chloro-phenyl)-2-trifluoromethyl-furan-3-carboxylic acid [5-chloro-2-(1H-tetrazol-5-yl)-phenyl]-amide] |
| 246.7 to 255.4 | – | – | Cc1oc(-c2ccc(Cl)cc2)cc1C(=O)Nc1cc(Cl)ccc1-c1nnn[nH]1 [Compound 12, 5-(4-Chloro-phenyl)-2-methyl-furan-3-carboxylic acid [5-chloro-2-(1H-tetrazol-5-yl)-phenyl]-amide] |
